Measurements as given in patent US4060652A (priority 1976, dated 1977).
“Also recorded” adds a separate entry of the source.

Columns and labels:
[1] = system: respiration; assay: Inhibition of respiration in narcotized and decerebrated cats (and rabbits); assay type: in vivo
Source text: This developed simultaneously with the block of the nervomuscular conduction in the anterior tibial muscle. […] The same result was obtained in experiments on rabbits. The ratio of LD50 in experiments on rabbits and mice, as specified above, also provides data on the that Tercuronium produces on respiration.

[2] = system: nervomuscular conduction, anterior tibial muscle; assay: Neostigmin antagonism of nervomuscular block in cats; assay type: in vivo
Experimental: Cats were narcotized (with chloralose, 50 mg per kg body weight, and urethane, 500 mg/kg, intraperitoneally) or decerebrated at the quadrigeminal bodies level. The lungs were ventilated artificially whenever necessary. Contractions of the anterior tibial muscle were recorded in isotonic concitions in response to electric stimulation of the peripheral part of n. peroneus with supramaximum pulses of 0.1 msec at a frequency of 0.1-100 Hz.
For example, even with a 5-fold dose of tercuronium, muscle contractility was restored already in 2 to 5 minutes following a single injection of neostigmin in a dose of 0.1 mg/kg, and in 15-20 minutes the recovery of the contactile function was complete.
In the case of pancuronium and α-tubocurarin, the restoration within these short periods of time could only be attained with 2-3 fold doses of these muscle relaxants. If the dose of pancuronium was increased 4 to 5 times, weak contractions of the muscle were observed not sooner than in 9 to 10 minutes and the contraction was, restored completely only 30 minutes after the injection of neostigmin (six experiments). The restoration of muscle contractility is delayed even longer in the case of α-tubocurarin.

[3] = system: arterial pressure; assay: Effect on arterial pressure in cats and rabbits; assay type: in vivo
Experimental: (§1) Experiments were carried out on narcotized cats and rabbits (50 mg/kg of chloralose and 500 mg/kg urethane, intraperitoneally) and also on cats decerebrated at the quadrigeminal level. The blood pressure in the carotid artery was recorded with a mercury pressure gauge. The preparations were injected intravenously.
(§2) When Tercuronium was given in a quantity ten times exceeding the myoparalytic dose (0.8 mcM/kg) an insignificant and transient reduction (10 to 20 mm Hg) of the blood pressure was observed. The animals (7 cats and 5 rabbits) tolerated injections of very large doses of Tercuronium, viz., 10-20 mcM/kg, which is 200 times higher than the myoparalytic dose. […] In all experiments, in 1 to 2 hours, the arterial pressure restored completely or was close to the initial level.

[4] = Effect on arterial pressure in cats and rabbits; assay type: in vivo; details: rabbit, in vivo, iv, artificial ventilation
Experimental: as §1, §2

[5] = system: patients; assay: Surgical operations, first series (maintenance of relaxation); assay type: in vivo, patients (human)
Experimental: (§3) We tried Tercuronium as a muscle relaxant in surgical operations on the abdominal and thoracic organs in 150 patients. The operations were carried out in conditions of intubation narcosis and artificial lung ventilation. Ether, fluorothane, nitrous oxide and barbiturates were used as anesthetics.
In the first series of observations (120 operations) Tercuronium was used as the main muscle relaxant for maintaining relaxation of the muscles. Tracheal intubation was carried out with muscle relaxation induced by dithilin-group agents. […] Complete muscle relaxation with the absence of active respiration continued on an average of 40 minutes. If, with the first signs of restoration of the muscle tone, we made another intravenous injection of Tercuronium in a dose constituting 1/3 to 1/2 of the initial one, complete relaxation continued for further 60 - 90 minutes.

[6] = system: patients; assay: Surgical operations, second series (intubation and maintenance); assay type: in vivo, patients (human)
Experimental: as §3
In the second series of observations (30 operations), Tercuronium was used for both maintaining muscle relaxation and intubation of the trachea. For this purpose, Tercuronium was used intravenously in a dose of 0.25 to 0.3 mg/kg. […] The relaxation continued for about an hour. For a longer relaxation of muscles, a repeated injection of Tercuronium in a dose of 0.05 to 0.08 mg/kg was required.

[7] = system: sympathetic ganglia; assay: Effect on sympathetic ganglia, third eyelid contraction in cats; assay type: in vivo
Experimental: (§4) Experiments were carried out on narcotized cats. A peripheral part of the sympathetic column on the neck was stimulated with electric pulses at 5 Hz. The duration of the stimulus was 1 msec, the amplitude 5 V. The contractions of the third eyelid (nictiating membrane) and the arterial (carotid) pressure were recorded with a mercury pressure gauge. We determined the intravenous dose of Tercuronium, α-tubocurarin and pancuronium that decreased the height of contraction of the third eyelid by 50 to 60 percent in conditions of prolonged stimulation of the sympathetic column.

[8] = as above; assay type: in vivo; details: cat, in vivo, iv, read-out: ganglioblocking dose as multiple of myoparalytic dose
Experimental: as §4

[9] = system: rabbits; assay: Head-drop test in non-narcotized rabbits; assay type: in vivo
Experimental: In experiments (a total of twenty) on non-narcotized rabbits, the head-drop dose (HDD) was 0.022 ± 0.009 micromole/kg A complete blocking effect developed 1.5 to 2 minutes after administration of Tercuronium and persisted for 3 to 5 minutes. A few minutes later, the animal behaviour normalized. The same effect was attained with 0.18 ± 0.02 micromole/kg of α-tubocurarin (6 experiments) and 0.018 ± 0.001 mcM/kg of pancuronium (6 experiments). The time of onset and the duration of the blocking effect with all the three preparations were the same.

[10] = system: phrenico-diaphragm preparations; assay: Block of nervomuscular conduction in isolated phrenico-diaphragm preparations; design: species or system rats; details: rat, isolated by the Bulbring method
Source text: In experiments on phrenico-diaphragm preparations of rats, isolated by the Bulbring method, the block of the nervomuscular conduction developed under the action of Tercuronium in a concentration of 2 × 10^-6 m/litre.

CC[N+](CC)(CC)c1ccc(-c2ccc(-c3ccc([N+](CC)(CC)CC)cc3)cc2)cc1 [Tercuronium, p,p"-bis-triethylammonio-n-terphenyl dibenzenesulphonate]
bronchospasm ([1]; 200-1000-fold dose, artificial ventilation, cats, same in rabbits): bronchospasm did not develop | inhibition of respiration by blocking doses, comparison ([1]; from LD50 to ED50 ratio): equally inhibit respiration | effect on respiration ([1]; narcotized and decerebrated cats): respiration was inhibited and stopped by a curare-like paralysis of the diaphragm; also recorded: respiration was restored simultaneously with the restoration of the muscle contraction | time to complete recovery of contractile function after neostigmin ([2]; 5-fold dose, neostigmin 0.1 mg/kg): 15 to 20 min | strength of neostigmin antagonism compared with other relaxants ([2]; cats): stronger that toward α-tubocurarin or pancuronium; also recorded: stronger with Tercuronium than with pancuronium or α-tubocurarin | number of myoparalytic doses whose blocking effect is completely removed by neostigmin ([2]; neostigmin 0.1 mg/kg intravenous, within five minutes): five | restoration from block by neostigmin ([2]; neostigmin 0.05 to 0.1 mg/kg intravenous): fully and immediately restored | blood pressure at very large doses ([3]; 10-20 mcM/kg): quickly and sharply dropped and then slowly normalized | arterial pressure on doses that inhibit respiration ([3]; active ventilation of the lungs): asphyxial rise in the arterial pressure | effect on arterial pressure of myoparalytic (complete block) dose ([3]; artificial ventilation): the arterial pressure was not affected | reduction of blood pressure ([3]; ten times the myoparalytic dose (0.8 mcM/kg)): 10-20 mm Hg | effect on arterial pressure, comparison ([3]; versus the other two muscle relaxants): mildest effect on the arterial pressure | selectivity ratio ([4]; 10-20 mcM/kg, read-out: tolerated dose as multiple of myoparalytic dose): 200 | MTD ([4]; cats and rabbits, read-out: tolerated dose): 10 to 20 µmol/kg | arterial pressure and frequency of heart contractions ([5]; 0.12 - 0.15 mg/kg): No changes in arterial pressure ar frequency of heart contractions, that could be attributed to the injection of Tercuronium, were observed | duration of complete muscle relaxation with absence of active respiration ([5]; 0.12 - 0.15 mg/kg intravenous, average): 40 min | electromyographic character of action ([5]; electromyographic analysis): nondepolarizing muscle relaxant | postoperative complications ([5]; postoperative period): did not observe any case of insufficient efficacy of proserpin, muscular atomia, or insufficiency of active respiration, or recurarization | restoration of active respiration by proserpin ([5]; proserpin 2.5 mg at end of operation): always resulted in quick (within a few minutes) restoration of active respiration in full volume | cardiovascular disorders or other complications ([6]; 0.25 to 0.3 mg/kg): not accompanied by cardiovacular disorders or any other complications | duration of relaxation ([6]; 0.25 to 0.3 mg/kg intravenous): about an hour | intubation conditions ([6]; 0.25 to 0.3 mg/kg intravenous): unobstructed intubation | postoperative complications ([6]; postoperative period): no cases of muscle atomia, respiratory insufficiency, or recurarization | efficiency of proserpin as deblocking agent ([6]; proserpin): complete | arterial pressure at ganglioblocking dose [7]: the arterial pressure dropped as well | selectivity ratio [8]: 10 to 15 | ED (head drop) ([9]; Oryctolagus cuniculus, read-out: head-drop dose (HDD)): 0.022 ± 0.009 µmol/kg | time of onset and duration of blocking effect, comparison ([9]; all three preparations): the same | blocking effect compared with pancuronium ([9]; rabbits): somewhat lower than that of pancuronium | blocking effect relative to α-tubocurarin ([9]; rabbits): eight | concentration blocking nervomuscular conduction [10]: 2 × 10^-6 m/litre
